{
  "source": "paper PMC3466219",
  "about": "(PLoS ONE, 2012)",
  "key": {"[1]": {"target": "Tip60 (Homo sapiens, UniProt Q92993)", "sequence (Q92993 whole entry)": "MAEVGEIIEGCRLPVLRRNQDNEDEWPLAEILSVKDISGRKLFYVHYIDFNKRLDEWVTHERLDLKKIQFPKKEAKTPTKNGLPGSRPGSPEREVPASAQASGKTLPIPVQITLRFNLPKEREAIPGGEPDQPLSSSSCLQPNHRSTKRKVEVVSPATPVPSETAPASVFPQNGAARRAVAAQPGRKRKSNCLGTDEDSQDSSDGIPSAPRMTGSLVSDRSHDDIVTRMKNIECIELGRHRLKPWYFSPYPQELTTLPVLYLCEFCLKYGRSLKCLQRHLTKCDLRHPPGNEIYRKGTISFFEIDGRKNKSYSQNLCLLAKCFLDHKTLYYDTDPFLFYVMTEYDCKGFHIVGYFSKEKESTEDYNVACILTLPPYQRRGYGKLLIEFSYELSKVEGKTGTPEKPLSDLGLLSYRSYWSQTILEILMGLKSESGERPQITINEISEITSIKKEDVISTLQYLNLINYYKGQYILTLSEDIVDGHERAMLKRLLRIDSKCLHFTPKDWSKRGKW", "experiment": "In vitro HAT assay, Tip60", "details": "for inhibition at 100 µM: read-out: Tip60 % inhibition at 100 µM; for Tip60 inhibitory activity (in words): in vitro HAT assay"}, "[2]": {"system": "acetylated histone H4K16, H3K14 and H4K8 in LNCaP cells", "experiment": "Western blotting of histone acetylation in LNCaP cells", "details": "Western blot"}, "[3]": {"target": "T1, p300 (Homo sapiens, UniProt Q09472)", "T1 sequence (Q09472 1287-1663 limits assumed)": "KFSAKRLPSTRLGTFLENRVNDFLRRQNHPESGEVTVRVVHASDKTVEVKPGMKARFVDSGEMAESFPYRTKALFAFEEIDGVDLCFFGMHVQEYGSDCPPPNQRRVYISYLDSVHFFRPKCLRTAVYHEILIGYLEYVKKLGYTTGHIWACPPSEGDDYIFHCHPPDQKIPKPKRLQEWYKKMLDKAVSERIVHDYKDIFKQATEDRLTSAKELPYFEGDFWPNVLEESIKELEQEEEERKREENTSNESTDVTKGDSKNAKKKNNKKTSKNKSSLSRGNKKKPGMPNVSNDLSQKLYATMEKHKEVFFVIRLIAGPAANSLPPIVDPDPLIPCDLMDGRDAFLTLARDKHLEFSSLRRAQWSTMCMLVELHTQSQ", "experiment": "In vitro HAT assay, p300", "type": "biochemical", "details": "individual IC50 values", "procedure": "(§1) Assays were performed in quadruplicate.\n(§2) Purification of recombinant HAT enzymes (GST-tagged)- Expression constructs, pGEX-p300 and pGEX-PCAF, obtained from Dr Andrew Bannister (Cambridge Cancer Centre, UK), were transformed into XA90 Escherichia coli cells. A single colony was selected and grown to an OD 0.5 IPTG (1 mM) induction was carried out for 4 hours then cell pellets were collected, lysed, and sonicated. Supernatants were then passed through glutathione Sepharose 4B (GE Healthcare) and purified protein was eluted with 50 mM Tris-HCl, 10 mM reduced glutathione, pH 8. Eluted fractions were tested for enzymatic activity by HAT assay."}, "[4]": {"target": "T2, PCAF (Homo sapiens, UniProt Q92831)", "T2 construct": "GST; made in house; host or cells: XA90 Escherichia coli", "T2 sequence (Q92831 whole entry, species assumed)": "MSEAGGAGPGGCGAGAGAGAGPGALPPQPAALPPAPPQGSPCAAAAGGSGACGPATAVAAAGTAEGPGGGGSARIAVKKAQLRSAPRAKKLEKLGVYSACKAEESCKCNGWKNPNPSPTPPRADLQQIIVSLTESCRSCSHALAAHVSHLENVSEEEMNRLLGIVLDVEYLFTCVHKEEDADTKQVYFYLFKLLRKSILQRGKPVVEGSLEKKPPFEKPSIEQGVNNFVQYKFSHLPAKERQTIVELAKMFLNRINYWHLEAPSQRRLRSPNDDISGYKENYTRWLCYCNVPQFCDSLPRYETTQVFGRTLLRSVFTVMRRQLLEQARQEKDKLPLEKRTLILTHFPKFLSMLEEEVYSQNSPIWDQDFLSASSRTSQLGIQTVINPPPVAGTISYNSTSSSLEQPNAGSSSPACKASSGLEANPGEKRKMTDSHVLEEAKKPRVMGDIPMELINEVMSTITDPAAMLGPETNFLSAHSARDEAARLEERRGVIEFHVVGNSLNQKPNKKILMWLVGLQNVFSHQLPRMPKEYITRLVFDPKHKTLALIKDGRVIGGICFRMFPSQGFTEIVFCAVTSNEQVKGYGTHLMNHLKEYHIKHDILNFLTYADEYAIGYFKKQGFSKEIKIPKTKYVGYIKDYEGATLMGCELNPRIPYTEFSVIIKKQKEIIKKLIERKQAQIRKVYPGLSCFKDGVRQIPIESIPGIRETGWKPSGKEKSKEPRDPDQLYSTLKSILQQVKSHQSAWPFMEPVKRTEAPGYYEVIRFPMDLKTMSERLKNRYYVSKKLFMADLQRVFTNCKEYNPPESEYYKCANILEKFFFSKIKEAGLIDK", "experiment": "In vitro HAT assay, PCAF", "type": "biochemical", "details": "individual IC50 values", "procedure": "as §1, §2"}, "[5]": {"target": "GCN5 (Homo sapiens, UniProt Q92830)", "sequence (Q92830 whole entry, species assumed)": "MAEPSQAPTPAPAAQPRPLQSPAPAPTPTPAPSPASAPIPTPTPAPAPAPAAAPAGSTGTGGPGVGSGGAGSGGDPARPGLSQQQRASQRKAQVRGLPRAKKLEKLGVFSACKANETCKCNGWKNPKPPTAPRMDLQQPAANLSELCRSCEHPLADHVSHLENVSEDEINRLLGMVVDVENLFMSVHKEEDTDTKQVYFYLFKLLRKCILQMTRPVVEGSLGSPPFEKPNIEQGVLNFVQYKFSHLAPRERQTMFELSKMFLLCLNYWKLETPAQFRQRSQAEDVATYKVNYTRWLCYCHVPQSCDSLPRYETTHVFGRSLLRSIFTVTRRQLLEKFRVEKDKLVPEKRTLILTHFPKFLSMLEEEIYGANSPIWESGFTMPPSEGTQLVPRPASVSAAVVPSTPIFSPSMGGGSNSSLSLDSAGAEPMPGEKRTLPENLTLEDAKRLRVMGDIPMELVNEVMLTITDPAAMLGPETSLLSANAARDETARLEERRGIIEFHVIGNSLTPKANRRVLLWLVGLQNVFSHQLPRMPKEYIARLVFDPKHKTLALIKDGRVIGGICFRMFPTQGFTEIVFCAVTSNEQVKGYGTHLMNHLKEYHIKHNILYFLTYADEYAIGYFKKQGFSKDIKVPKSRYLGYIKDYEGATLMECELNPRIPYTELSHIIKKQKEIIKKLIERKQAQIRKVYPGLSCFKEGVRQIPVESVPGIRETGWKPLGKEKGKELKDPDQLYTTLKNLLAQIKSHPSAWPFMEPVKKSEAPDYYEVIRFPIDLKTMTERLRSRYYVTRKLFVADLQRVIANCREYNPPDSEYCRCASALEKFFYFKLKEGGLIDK", "experiment": "In vitro HAT assay, GCN5", "type": "biochemical", "procedure": "as §1"}, "[6]": {"system": "Tip60 levels in LNCaP cells", "type": "cell-based", "details": "increasing concentrations, 24 hours, Western blot", "from_the_text": "Representative blots are shown for duplicate experiments."}},
  "note": "Values joined by “and” are separate entries in the source; they are usually repeats but may differ in a detail not shown here. Equal values may be shown once. Read-outs that look alike come from different tables or passages of the source.",
  "data": [
    {"smiles": "c1ccc(SSc2ccccc2)cc1", "note": "[Diphenyl disulphide]", "values": [
      {"measurement": "inhibition at 100 µM", "setting": "[1]", "value": 4, "unit": "%"}
    ]},
    {"smiles": "Cc1cnsc1", "note": "[Compound 11, 4-Methylisothiazole]", "values": [
      {"measurement": "inhibition at 100 µM", "setting": "[1]", "value": 22, "unit": "%"}
    ]},
    {"smiles": "Cc1ccsc1Br", "note": "[2-Bromo-3-methylthiophene]", "values": [
      {"measurement": "IC50", "setting": "[1]", "value": "> 100", "unit": "µM"},
      {"measurement": "Tip60 inhibitory activity (in words)", "setting": "[1]", "value": "inactive"}
    ]},
    {"smiles": "c1cc(SSc2ccncc2)ccn1", "note": "[4,4′-Dithiodipyridine]", "values": [
      {"measurement": "IC50", "setting": "[1]", "value": 48, "unit": "µM"}
    ]},
    {"smiles": "CC(/C=C/C(=O)NO)=C\\[C@@H](C)C(=O)c1ccc(N(C)C)cc1", "note": "[TSA, trichostatin A]", "values": [
      {"measurement": "acetylation at H4K8, H4K16 and H3K14", "setting": "[2]; TSA alone 2 µM, 6 hours", "value": "acetylation was increased"}
    ]},
    {"smiles": "Cc1cnsc1SSc1sncc1C", "note": "[Compound 5, 1,2-Bis(4-methylisothiazol-5-yl)disulfane]", "values": [
      {"measurement": "IC50", "setting": "[3]", "value": "58 µM and 43 µM"},
      {"measurement": "IC50", "setting": "[4]", "value": "33 µM and 25 µM"},
      {"measurement": "IC50", "setting": "[5]", "value": "> 100", "unit": "µM"},
      {"measurement": "IC50", "setting": "[1]", "value": 4, "unit": "µM"}
    ]},
    {"smiles": "c1ccc2sc(SSc3nc4ccccc4s3)nc2c1", "note": "[2,2′-Dithio(bis)benzothiazole]", "values": [
      {"measurement": "inhibition at 100 µM", "setting": "[1]", "value": 25, "unit": "%"}
    ]},
    {"smiles": "Cc1cnsc1SC#N", "note": "[Compound 4, 4-Methyl-5-thiocyanatoisothiazole]", "values": [
      {"measurement": "inhibition at 100 µM", "setting": "[1]", "value": 46, "unit": "%"}
    ]},
    {"smiles": "Cc1cnsc1Br", "note": "[Compound 1, 4-Methyl-5-bromoisothiazole]", "values": [
      {"measurement": "Tip60 inhibitory activity (in words)", "setting": "[1]", "value": "inactive"},
      {"measurement": "inhibition at 100 µM", "setting": "[1]", "value": 14, "unit": "%"}
    ]},
    {"smiles": "c1ccc(SSc2ccccn2)nc1", "note": "[2,2′-Dithiodipyridine]", "values": [
      {"measurement": "IC50", "setting": "[1]; Tip60 IC50, in vitro HAT assay, 3H acetyl-CoA, histones as substrates, individual IC50 values", "value": "62 µM and 87 µM"}
    ]},
    {"smiles": "N#CSc1ccns1", "note": "[Compound 6, 5-Thiocyanatoisothiazole]", "values": [
      {"measurement": "inhibition at 100 µM", "setting": "[1]", "value": 27, "unit": "%"}
    ]},
    {"smiles": "c1cc(CCc2ccncc2)ccn1", "note": "[1,2-bis(4-pyridyl)ethane]", "values": [
      {"measurement": "Tip60 levels", "setting": "[6]", "value": "unaffected"},
      {"measurement": "levels of acetylated histone H4K16, H3K14 and H4K8", "setting": "[2]; increasing concentrations for 2 hours, then TSA 2 µM for a further 4 hours", "value": "did not affect"}
    ]}
  ]
}
